From patent US10300067B2, “Tetrahydropyridopyrimidine compound or salt thereof” (TAIHO PHARMACEUTICAL CO., LTD., priority 2014, dated 2019)

Assays:
Format in all cases: cell-based
[1] = biological target: human androgen receptor (Homo sapiens (Human), UniProt P10275); experiment: Antagonist activity for AR (pMMTV-luc reporter transcription activity in transfected COS-7 cells, DHT 1 nmol/L); settings: for IC50: 50% transcription activity inhibition concentration, COS-7 cells with pMMTV-luc and pEX-hAR, DHT 1 nmol/L, 24 hours; for antagonist activity for AR (in words): COS-7 reporter assay
Experimental: Antagonist activity for AR was evaluated according to the following method. COS-7 cells (ATCC) were transfected with pMMTV-luc vector (reporter plasmid having, as an androgen response element, […] long terminal repeat) and pEX-hAR vector (human androgen receptor expression vector: which expresses human AR gene under control of CMV promoter) by using Nucleofector (registered trademark) Kit R (Lonza) as a transfection reagent and Amaxa (Lonza). The COS-7 cells obtained after transfection were seeded in a clear bottom 96 well microplate (BD) at 1.5×10^4/well with phenol red free RPMI1640 containing 10% charcoal-treated fetal bovine serum (hereinbelow, DCC-FBS) (hereinbelow, the medium is referred to as an evaluation medium), and then cultured overnight. […] Then, the transcription activity value was measured. The transcription activity was measured by using Bright-Glo™ Luciferase Assay System (Promega).

[2] = tested on: AR positive human prostate cancer cells VCaP; experiment: Agonist activity for AR (cell proliferation rate of VCaP cells); settings: 72 hours, 2 to 10000 nmol/L, more than 10% at any concentration = agonist activity for AR
Experimental: AR positive human prostate cancer cells VCaP (In Vivo 15:163-168, 2001) were seeded in a clear bottom 96 well microplate (BD) at 1.5×10^4/well with phenol red free RPMI1640 containing 5% DCC-FBS (hereinbelow, the medium is referred to as an evaluation medium), and then cultured overnight. The culture was added with the evaluation medium containing the compound of Examples or the compound of Comparative Examples (final concentration of the compound of Examples or the compound of Comparative Examples: 2, 5, 14, 41, 123, 370, 1111, 3333, or 10000 nmol/L), followed by culture for 72 hours. Then, the number of viable cells was counted (test group). As a control, the cells were cultured after being added with the evaluation medium only, and the number of viable cells was counted (control group). The number of viable cells was measured by using CellTiter-Glo™ Luminescent Cell Viability Assay (Promega). From the measured number of viable cells, cell proliferation rate with respect to the compound of Examples or the compound of Comparative Examples was calculated based on the number of viable cells measured in the case of using the evaluation medium only. Cell proliferation rate (%) =(Number of viable cells in test group−Number of viable cells in control group)/(Number of viable cells in control group)×100
By considering an error in the number of viable cells measured in the case of using the evaluation medium only, when the cell proliferation rate was more than 10% at any concentration of the 9 concentrations which had been evaluated, it was determined to have an agonist activity for AR.

[3] = biological target: androgen receptor (Homo sapiens (Human), UniProt P10275, T878A); experiment: Activity of reducing expression level of androgen receptor (Western blotting of LNCaP cell lysate); settings: 48 hours
Experimental: AR positive human prostate cancer cells LNCaP were seeded in a clear bottom 6 well microplate (BD) at 3.5×10^5/well with phenol red free RPMI1640 containing 5% FBS (hereinbelow, the medium is referred to as an evaluation medium), and then cultured overnight. The culture was added with the evaluation medium containing the compound of Examples or the compound of Comparative Examples such that the final concentration of the compound of Examples or the compound of Comparative Examples was 10000 nmol/L, followed by culture for 48 hours. After culture for 48 hours, the medium was removed and the cells were washed with PBS and added with 0.1 mL of Lysis buffer (M-PER added with Protease Inhibitor Cocktail), followed by keeping at 4° C. for 20 minutes. After cell lysis, the cell solution was centrifuged to recover the supernatant as cell lysate. […] The antibody-reacting band (anti AR receptor) was quantified by LAS-3000 (FUJIFILM) using Super Signal West Pico Substrate (Thermo Scientific) as a detection reagent.

Sequence of human androgen receptor (P10275 whole entry): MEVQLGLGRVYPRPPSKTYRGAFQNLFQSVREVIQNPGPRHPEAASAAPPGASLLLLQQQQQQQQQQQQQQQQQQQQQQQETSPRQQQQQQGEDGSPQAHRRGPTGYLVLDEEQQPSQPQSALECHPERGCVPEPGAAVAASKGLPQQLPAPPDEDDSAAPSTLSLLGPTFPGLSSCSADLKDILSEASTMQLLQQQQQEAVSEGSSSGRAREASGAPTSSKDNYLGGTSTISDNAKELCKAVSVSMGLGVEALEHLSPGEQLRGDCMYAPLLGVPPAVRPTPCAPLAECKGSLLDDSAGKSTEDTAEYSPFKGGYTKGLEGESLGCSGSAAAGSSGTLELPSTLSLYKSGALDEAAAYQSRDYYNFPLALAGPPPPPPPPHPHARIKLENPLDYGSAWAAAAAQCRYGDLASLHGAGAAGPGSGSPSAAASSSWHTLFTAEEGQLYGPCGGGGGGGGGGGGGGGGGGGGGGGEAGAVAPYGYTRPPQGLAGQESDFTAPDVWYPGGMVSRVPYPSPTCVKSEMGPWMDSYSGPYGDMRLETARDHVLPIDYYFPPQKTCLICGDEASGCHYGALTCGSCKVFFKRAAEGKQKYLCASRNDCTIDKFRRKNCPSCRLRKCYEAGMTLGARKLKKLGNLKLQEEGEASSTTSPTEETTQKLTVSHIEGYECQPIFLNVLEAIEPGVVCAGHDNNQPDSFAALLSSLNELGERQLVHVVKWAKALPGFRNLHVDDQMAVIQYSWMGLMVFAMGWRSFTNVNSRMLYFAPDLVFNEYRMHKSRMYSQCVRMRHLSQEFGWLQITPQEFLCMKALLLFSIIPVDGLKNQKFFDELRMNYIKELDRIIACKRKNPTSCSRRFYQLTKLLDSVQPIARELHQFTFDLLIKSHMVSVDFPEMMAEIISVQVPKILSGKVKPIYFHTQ
Sequence of androgen receptor (P10275 whole entry T878A): as the sequence (P10275 whole entry) above, with T878A counted along it

SMILES | IC50 [1] [nM] | Cell proliferation rate (%) [2] [%] | further results
N#Cc1ccc(N2CCc3c(ncnc3Nc3ccc(CC(=O)NCC(F)(F)F)cn3)C2)cc1C(F)(F)F [Example 22, 2-(6-((7-(4-Cyano-3-(trifluoromethyl)phenyl)-5,6,7,8-tetrahydropyrido[3,4-d]pyrimidin-4-yl)amino)pyridin-3-yl)-N-(2,2,2-trifluoroethyl)acetamide] | 370 | – | –
N#Cc1ccc(N2CCc3c(ncnc3Nc3ccc(C(=O)NCC(F)F)nc3)C2)cc1C(F)(F)F [Example 48, 5-((7-(4-Cyano-3-(trifluoromethyl)phenyl)-5,6,7,8-tetrahydropyrido[3,4-d]pyrimidin-4-yl)amino)-N-(2,2-difluoroethyl)picolinamide] | 490 | −2.6 | –
CC(C)Oc1ccc(Nc2nnc3n2CCN(c2ccc(C#N)c(C(F)(F)F)c2)C3)cc1 [Comparative Example 3, 4-(3-((4-Isopropoxyphenyl)amino)-5,6-dihydro[1,2,4]triazolo[4,3-a]pyrazin-7(8H)-yl)-2-(trifluoromethyl)benzonitrile, reference compound] | > 10000 | – | 10 μM AR expression reducing activity [3]: <10%; antagonist activity for AR (in words) [1]: no antagonist activity for AR
N#Cc1ccc(N2CCc3c(ncnc3Nc3ccc(OCCn4ccnn4)nc3)C2)cc1C(F)(F)F [Example 15, 4-(4-((6-(2-(1H-1,2,3-Triazol-1-yl)ethoxy)pyridin-3-yl)amino)-5,6-dihydropyrido[3,4-d]pyrimidin-7 (8H)-yl)-2-(trifluoromethyl)benzonitrile] | 130 | 0.3 | –
N#Cc1ccc(N2CCc3c(ncnc3Nc3ccc(NC(=O)OCC(F)(F)F)cn3)C2)cc1C(F)(F)F [Example 21, 2,2,2-Trifluoroethyl (6-((7-(4-cyano-3-(trifluoromethyl)phenyl)-5,6,7,8,-tetrahydropyrido[3,4-d]pyrimidin-4-yl)amino)pyridin-3-yl)carbamate] | 380 | −0.6 | –
COc1cccc(Nc2ncnc3c2CCN(c2ccc(C#N)c(Cl)c2)C3)c1 [Example 55, 2-Chloro-4-(4-((3-methoxyphenyl)amino)-5,6-dihydropyrido[3,4-d]pyrimidin-7(8H)-yl)benzonitrile] | – | 1.0 | –
CC(C)(O)c1ccc(Nc2ncnc3c2CCN(c2ccc(C#N)cc2Cl)C3)nc1 [Comparative Example 5, 3-Chloro-4-(4-((5-(2-hydroxypropan-2-yl)pyridin-2-yl)amino)-5,6-dihydropyrido[3,4-d]pyrimidin-7(8H)-yl)benzonitrile, reference compound] | > 10000 | – | –
N#Cc1ccc(C(F)(F)F)cc1N1CCc2c(ncnc2Nc2ccc(C(=O)NCC(F)(F)F)cn2)C1 [Comparative Example 9, 6-((7-(2-Cyano-5-(trifluoromethyl)phenyl)-5,6,7,8-tetrahydropyrido[3,4-d]pyrimidin-4-yl)amino)-N-(2,2,2-trifluoroethyl)nicotinamide, reference compound] | > 10000 | – | –
N#Cc1cc(C(F)(F)F)ccc1N1CCc2c(ncnc2Nc2ccc(C(=O)NCC(F)(F)F)cn2)C1 [Comparative Example 8, 6-((7-(2-Cyano-4-(trifluoromethyl)phenyl)-5,6,7,8-tetrahydropyrido[3,4-d]pyrimidin-4-yl)amino)-N-(2,2,2-trifluoroethyl)nicotinamide, reference compound] | > 10000 | – | –
N#Cc1ccc(N2CCc3c(ncnc3Nc3ncc(C(=O)NCC(F)(F)F)nn3)C2)cc1C(F)(F)F [Example 25, 3-((7-(4-Cyano-3-(trifluoromethyl)phenyl)-5,6,7,8-tetrahydropyrido[3,4-d]pyrimidin-4-yl)amino)-N-(2,2,2-trifluoroethyl)-1,2,4-triazine-6-carboxamide] | 3320 | 6.3 | –
N#Cc1ccc(N2CCc3c(ncnc3Nc3ccc(C4(O)CCC4)c(F)n3)C2)cc1Cl [Example 56, 2-Chloro-4-(4-((6-fluoro-5-(1-hydroxycyclobutyl)pyridin-2-yl)amino)-5,6-dihydropyrido[3,4-d]pyrimidin-7 (8H)-yl)benzonitrile] | 840 | 8.0 | –
CC(C)(O)c1ccc(Nc2ncnc3c2CCN(c2ccc(C#N)cc2)C3)nc1 [Comparative Example 11, 4-(4-((5-(2-Hydroxypropan-2-yl)pyridin-2-yl)amino)-5,6-dihydropyrido[3,4-d]pyrimidin-7(8H)-yl)benzonitrile, reference compound] | > 10000 | – | antagonist activity for AR (in words) [1]: did not show the antagonist activity for AR
N#Cc1ccc(N2CCc3c(ncnc3Nc3cc(C(=O)NCC(F)(F)F)ccn3)C2)cc1C(F)(F)F [Example 31, 2-((7-(4-Cyano-3-(trifluoromethyl)phenyl)-5,6,7,8-tetrahydropyrido[3,4-d]pyrimidin-4-yl)amino)-N-(2,2,2-trifluoroethyl)isonicotinamide] | 390 | – | –
CC(O)c1ccc(Nc2ncnc3c2CCN(c2ccc(C#N)c(C(F)(F)F)c2)C3)cc1 (centres unmarked) [Example 58] | – | 2.0 | –
COc1ccc(Nc2ncnc3c2CCN(c2ccc(C#N)c(Cl)c2)C3)cc1 [Example 54, 2-Chloro-4-(4-((4-methoxyphenyl)amino)-5,6-dihydropyrido[3,4-d]pyrimidin-7(8H)-yl)benzonitrile] | – | 3.4 | –
CC(C)(COc1ccc(Nc2ncnc3c2CCN(c2ccc(C#N)c(Cl)c2)C3)nc1)n1cnnn1 [Example 53, 2-Chloro-4-(4-((5-(2-methyl-2-(1H-tetrazol-1-yl)propoxy)pyridin-2-yl)amino)-5,6-dihydropyrido[3,4-d]pyrimidin-7(8H)-yl)benzonitrile] | 55 | – | –
N#Cc1cccc(N2CCc3c(ncnc3Nc3ccc(C(=O)NCC(F)(F)F)cn3)C2)c1C(F)(F)F [Comparative Example 10, 6-((7-(3-Cyano-2-(trifluoromethyl)phenyl)-5,6,7,8-tetrahydropyrido[3,4-d]pyrimidin-4-yl)amino)-N-(2,2,2-trifluoroethyl)nicotinamide, reference compound] | > 10000 | – | –
CC(C)(O)c1ccc(Nc2ncnc3c2CCN(c2cc(Cl)cc(C#N)c2)C3)nc1 [Comparative Example 6, 3-Chloro-5-(4-((5-(2-hydroxypropan-2-yl)pyridin-2-yl)amino)-5,6-dihydropyrido[3,4-d]pyrimidin-7 (8H)-yl)benzonitrile, reference compound] | > 10000 | – | –
CC(C)(O)C1CCN(C(=O)c2nnc(Nc3ncnc4c3CCN(c3ccc(C#N)c(C(F)(F)F)c3)C4)o2)CC1 [Example 43, 4-(4-((5-(4-(2-Hydroxypropan-2-yl)piperidin-1-carbonyl)-1,3,4-oxadiazol-2-yl)amino)-5,6-dihydropyrido[3,4-d]pyrimidin-7(8H)-yl)-2-(trifluoromethyl)benzonitrile] | 790 | – | –
CC(C)(O)c1ccc(Nc2ncnc3c2CCN(c2cccc(Cl)c2C#N)C3)nc1 [Comparative Example 7, 2-Chloro-6-(4-((5-(2-hydroxypropan-2-yl)pyridin-2-yl)amino)-5,6-dihydropyrido[3,4-d]pyrimidin-7 (8H)-yl)benzonitrile, reference compound] | > 10000 | – | –
CC(C)(O)c1cnc(Nc2ncnc3c2CCN(c2ccc(C#N)c(Cl)c2)C3)cc1F [Example 45, 2-Chloro-4-(4-((4-fluoro-5-(2-hydroxypropan-2-yl)pyridin-2-yl)amino)-5,6-dihydropyrido[3,4-d]pyrimidin-7 (8H)-yl)benzonitrile] | 940 | – | –
